Assay results: patent US5030733A, “Hydroxy-, alkoxy- and benzyloxy-substituted phospholipids” (Hoechst-Roussel Pharmaceticals Incorporated, priority 1989, dated 1991)

Tested on: phenyl-para-quinone induced writhing
Experiment: phenyl-para-quinone (PQW) writhing assay for analgesia
Format: in vivo
Conditions: Mus musculus, sc; 50% inhibition of writhing, s.c., mice; read-out: ED50 (subcutaneous dose at which 50% of the phenyl-para-quinone induced writhing is inhibited)
Text: The compounds of the present invention are also useful as analgesic agents due to their ability to alleviate pain in mammals. […] Exptl. Biol. Med., 95, 729 (1957)]. Presented in Table 2 is the analgesic effect of some of the compounds of the invention expressed as either the subcutaneous dose at which 50% of the phenyl-para-quinone induced writhing is inhibited in the animals, i.e., the ED50 value, or as the % decrease in writhing at a give dose.

## CCC(=O)O[C@](Cc1ccccc1)(c1ccccc1)[C@H](C)CN(C)C [Propoxyphene]
  ED50: 3.9 mg/kg
